Measurements reported in ChEMBL document CHEMBL5325400 (Eur J Med Chem, 2023).
Activity calls are given as the source filed them. The rule behind the calls is not given here.

Columns and labels:
[1] = tested on: A549; experiment: Inhibition of colony formation in human A549 cells at 20 nM incubated for 6 days by crystal violet staining based analysis; assay type: functional, cell-based; settings: time 6.0 day
[2] = tested on: B16-F10; experiment: Inhibition of cell migration in mouse B16-F10 cells assessed as total number of cells migrated at 10 nM incubated for 12 hrs by crystal violet staining based transwell assay (reference value: 692 +/- 11); assay type: functional
[3] = Toxicity in BALB/c mouse assessed as change in body weight at 10 mg/kg, ip; assay type: organism-based; settings: in vivo
[4] = tested on: B16-F10; experiment: Antimigratory activity against mouse B16-F10 cells assessed as inhibition of cell migration at 20 nM and incubated for 12 hrs by scratch wound healing assay (reference value: 81.9 +/- 0.64%); assay type: functional; design: scale not given: the % may be the effect or the level left
[5] = tested on: A549; experiment: Antitumor activity against human A549 cells xenografted in BALB/c mouse assessed as reduction in EGFR phosphorylation at S473 residue in tumor at 5 to 10 mg/kg, ip administered every other day for 25 days by Western blotting analysis; assay type: functional, organism-based; settings: dose 5-10 mg/kg, time 25.0 day
[6] = tested on: A549; experiment: Inhibition of cell migration in human A549 cells assessed as total number of cells migrated at 10 nM incubated for 12 hrs by crystal violet staining based transwell assay (reference value: 724 +/- 16); assay type: functional
[7] = Toxicity in BALB/c nude mouse xenografted with human A549 cells assessed as pathological changes in spleen at 5 to 10 mg/kg, ip administered every other day for 25 days by hematoxylin and eosin staining based microscopic analysis; assay type: organism-based; settings: in vivo, 600 h, dose 5-10 mg/kg, time 25 day
[8] = Toxicity in BALB/c mouse xenografted with human A549 cells assessed as change in body weight at 5 mg/kg, ip administered every other day for 25 days; assay type: organism-based; settings: in vivo, 600 h, time 25 day
[9] = tested on: A549; experiment: Induction of apoptosis in human A549 cells assessed as early apoptotic cells at 10 nM incubated for 24 hrs by annexin V-FITC/propidium iodide staining based flow cytometry analysis (reference value: 0.84%); assay type: functional
[10] = tested on: A549; experiment: Induction of apoptosis in human A549 cells assessed as viable cells at 10 nM incubated for 24 hrs by annexin V-FITC/propidium iodide staining based flow cytometry analysis (reference value: 96.44%); assay type: functional; settings: read-out: Activity
[11] = tested on: A549; experiment: Induction of apoptosis in human A549 cells assessed as early apoptotic cells at 40 nM incubated for 24 hrs by annexin V-FITC/propidium iodide staining based flow cytometry analysis (reference value: 0.84%); assay type: functional
[12] = tested on: A549; experiment: Antitumor activity against human A549 cells xenografted in BALB/c mouse assessed as upregulation of cleaved PARP expression in tumor at 5 mg/kg, ip administered every other day for 25 days by Western blotting analysis; assay type: functional, organism-based; settings: time 25.0 day
[13] = tested on: A549; experiment: Antimigratory activity against human A549 cells assessed as inhibition of cell migration at 20 nM and incubated for 12 hrs by scratch wound healing assay (reference value: 29.5 +/- 1.34%); assay type: functional; design: scale not given: the % may be the effect or the level left
[14] = tested on: A549; experiment: Inhibition of colony formation in human A549 cells incubated for 6 days by crystal violet staining based analysis; assay type: functional, cell-based; settings: dose 1-20 nM, time 6.0 day
[15] = tested on: MDA-MB-231; experiment: Antiproliferative activity against human MDA-MB-231 cells assessed as inhibition of cell growth measured after 48 hrs by MTT assay; assay type: functional, cell-based; settings: MDA-MB-231, 48 h
[16] = tested on: A549; experiment: Induction of apoptosis in human A549 cells assessed as necrotic cells at 10 nM incubated for 24 hrs by annexin V-FITC/propidium iodide staining based flow cytometry analysis (reference value: 2.36%); assay type: functional
[17] = tested on: A549; experiment: Induction of cell cycle arrest in human A549 cells assessed as accumulation at G1 phase at 40 nM incubated for 24 hrs by PI staining based flow cytometry (Rvb= 65.68%); assay type: functional

IC50 [15]: 4.4 nM
Compound: COc1cccc(Nc2cc(Nc3cccc(NC(=O)C4CC4)c3)ncn2)c1
inhibition [1]: Active | Activity [2]: 510 | Activity [3]: Non-Toxic | Activity [4]: 39.7% | Activity [5]: inactive | Activity [6]: 486 | Activity [7]: Non-Toxic | Activity [8]: Non-Toxic | Activity [9]: 1.5% | viability at 0.01 µM [10]: 82.2% | Activity [11]: 3.86% | Activity [12]: Active | Activity [13]: 9.8% | inhibition [14]: Dose-Dependent Effect | Activity [16]: 6.5% | Activity [17]: 21.8%
